In patent US20230104283A1, “JNK INHIBITOR, AND PHARMACEUTICAL COMPOSITION AND USE THEREOF” (WUHAN LL SCIENCE AND TECHNOLOGY DEVELOPMENT CO. , LTD, priority 2019, published 2023):

Legend:
[1] = system: RAW264.7 phosphorylated c-Jun (Ser63); experiment: RAW264.7 phosphorylated c-Jun whole cell assay; type: cell-based; settings: Mus musculus; cytological assay, activity level; lipopolysaccharide-activated RAW264.7 cells, phospho-c-Jun (Ser63) ELISA
Method: RAW264.7 (ATCC TIB-71) cells were purchased from BeNa Culture Collection and maintained in a high-glucose DMEM medium (Gibco) containing 10% fetal bovine serum (Gibco) and 1% penicillin-streptomycin (Gibco). All cells were cultured at 37° C. in 95% air and 5% CO2. All cells were seeded into 120 μL of cell culture medium in a 96-well plate at a density of 2×10^5 cells per well. The stock solution of compound (15 mM) was serially diluted in DMSO (Sigma) and further diluted in growth medium, and it was then added at 15 μL per well as a 10× concentrated solution, well mixed with the cells and incubated with the cells for 30 min. Concentration of the compound vehicle (DMSO) in each well was 0.2%. After incubation for 30 min, the cells were activated with […] lipopolysaccharide (Sigma). Lipopolysaccharide was added to the growth medium as a 10× concentrated solution at 15 μL per well. The cell plate was incubated for 1 h, and then all the medium was removed. The level of C-Jun protein with phosphorylation of serine at site 63 was measured using the whole cell lysate kit-phosphorylated C-Jun assay (PathScan® Phospho-c-Jun (Ser63) Sandwich ELISA Kit) (CST, 7145C) according to the manufacturer's instructions.

JNK1 kinase = target: T1, JNK1 kinase (Homo sapiens, UniProt P45983); experiment: JNK1 activity screening (time-resolved fluorometric HTRF kinase assay); type: biochemical; settings: enzymatic assay, activity level
T1 construct: purchased Carna Biosciences 04-163
Method: JNK1 activity screening. JNK1 activity was detected using a 96-well (Cisbio, 66PL96025) time-resolved fluorometric assay. The JNK1 assay was conducted in the following assay buffer: 10 mM MgCl2 (Sigma, M1028), 1 mM MnCl2 (Sigma, M1787), 1 mM DTT (Sigma, D0632) and 1× Enzymatic buffer/kinase (Cisbio, 62EZBFDC). By using the assay buffer, 3 μL of 0.1 ng/μL JNK1 kinase (Carna Biosciences, 04-163) was added to a 96-well microplate, and then 4 μL of a compound diluted appropriately (with a DMSO content of 2.5%) was added. The resulting mixture was incubated at room temperature for 0.5 h. To start the reaction, the assay buffer was used to mix 0.003 μM ATP (Aladdin, A7699) and 30 μM substrate ATF2-GST fusion (Cisbio, 64CUS000AFPEB), and 3 μL of the mixed solution was added to the microplate. The resulting mixture was incubated at room temperature for 2.5 h. HTRF detection buffer ([…], 62SDBRDD) was used then to prepare a mixture of 5 μg/mL MAb Anti GST-XL665 (Cisbio, 61GSTXLA) and 0.045 μg/mL PAb Anti-phospho ATF2-K (Cisbio, 61P12KAZ), and 10 μL of the mixture was added to the plate to terminate the reaction. After incubation for about 12 h, the plate was read on a Perkin-Elmer Envision reader.

T1 sequence (P45983 whole entry): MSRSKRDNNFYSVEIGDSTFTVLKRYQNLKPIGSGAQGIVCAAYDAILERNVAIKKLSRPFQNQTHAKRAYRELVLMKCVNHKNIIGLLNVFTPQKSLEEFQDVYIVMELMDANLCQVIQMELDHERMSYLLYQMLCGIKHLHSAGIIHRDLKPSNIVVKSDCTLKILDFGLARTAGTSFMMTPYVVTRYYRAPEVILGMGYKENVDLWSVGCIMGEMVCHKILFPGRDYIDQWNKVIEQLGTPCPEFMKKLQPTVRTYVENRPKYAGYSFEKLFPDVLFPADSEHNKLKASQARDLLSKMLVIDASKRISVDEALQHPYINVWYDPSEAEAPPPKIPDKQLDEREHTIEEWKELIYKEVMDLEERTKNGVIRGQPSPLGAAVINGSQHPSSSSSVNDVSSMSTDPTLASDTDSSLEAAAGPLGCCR

IC50 [1] [nM]	IC50 (JNK1 kinase) [nM]	SMILES
> 1000	> 1000	Cc1cnc(NC(C)(C)C)nc1N[C@@H]1CC[C@@H](C)[C@H](O)C1 [Compound T014, (1R,2R,5R)-5-((2-(tert-butylamino)-5-methylpyrimidin-4-yl)amino)-2-methylcyclohex-1-ol]
> 1000	> 1000	C[C@@H]1CC[C@@H](Nc2nc(Nn3cnnc3)ncc2C(N)=O)C[C@H]1O [Compound T004, 2-((4H-1,2,4-triazol-4-yl)amino)-4-(((1R, 3R,4R)-3-hydroxy-4-methylcyclohexyl)amino)pyrimidine-5-carboxamide]
> 1000	> 1000	C[C@@H]1CC[C@@H](Nc2cc(NC(C)(C)C)ncc2C(N)=O)C[C@H]1O [Compound T045, 6-(tert-butylamino)-4-(((1R,3R,4R)-3-hydroxy-4-methylcyclohexyl)amino) nicotinamide]
100 to 500	100 to 500	C[C@@H]1CC[C@@H](Nc2nc(NC(C)(C)C)ncc2C(=O)C2CC2)C[C@H]1O [Compound T068, (2-(tert-butylamino)-4-(((1R,3R,4R)-3-hydroxy-4-methylcyclohexyl)amino)pyrimidin-5-yl)(cyclopropyl)methanone]
100 to 500	100 to 500	CCC(=O)c1cnc(NC(C)(C)C)nc1N[C@@H]1CC[C@@H](C)[C@H](O)C1 [Compound T069, 1-(2-(tert-butylamino)-4-(((1R,3R,4R)-3-hydroxy-4-methylcyclohexyl)amino)pyrimidin-5-yl)propan-1-one]
> 1000	> 1000	C[C@@H]1CC[C@@H](Nc2nc(NC(C)(C)C)ncc2O)C[C@H]1O [Compound T032, 2-(tert-butylamino)-4-(((1R,3R,4R)-3-hydroxy-4-methylcyclohexyl)amino) pyrimidine-5-ol]
> 1000	500 to 1000	C[C@@H]1CC[C@@H](Nc2cc(NC3CCC(O)C3)ncc2C(N)=O)C[C@H]1O (stereo partly drawn) [Compound T048, 4-(((1R,3R,4R)-3-hydroxy-4-methylcyclohexyl)amino)-6-((3-hydroxycyclopentyl)amino) nicotinamide]
100 to 500	< 100	CCNC(=O)N1CCC(Nc2ncc(C(N)=O)c(N[C@@H]3CC[C@@H](C)[C@H](O)C3)n2)CC1 [Compound T024, 2-((l-(ethylcarbamoyl)piperidin-4-yl)amino)-4-(((1R,3R,4R)-3-hydroxy-4-methylcyclohexyl)amino)pyrimidine-5-carboxamide]
100 to 500	< 100	C[C@@H]1CC[C@@H](Nc2nc(NC(C)(C)C)ncc2/C(N)=N\O)C[C@H]1O [Compound T002, (E)-2-(tert-butylamino)-N′-hydroxy-4-(((1R,3R,4R)-3-hydroxy-4-methylcyclohexyl)amino)pyrimidine-5-carboximidamide]
500 to 1000	100 to 500	C[C@@H]1CC[C@@H](Nc2nc(NC(C)(C)C)ncc2-n2ccnn2)C[C@H]1O [Compound T036, (1R,2R,5R)-5-((2-(tert-butylamino)-5-(1H-1,2,3-triazol-1-yl)pyrimidin-4-yl)amino)-2-methylcyclohexan-1-ol]
500 to 1000	100 to 500	COc1ccc(Oc2ncc(C(N)=O)c(N[C@@H]3CC[C@@H](C)[C@H](O)C3)n2)cc1 [Compound T040, 4-(((1R,3R,4R)-3-hydroxy-4-methylcyclohexyl)amino)-2-(4-methoxyphenoxy)pyrimidine-5-carboxamide]
> 1000	> 1000	COc1cnc(NC(C)(C)C)nc1N[C@@H]1CC[C@@H](C)[C@H](O)C1 [Compound T029, (1R,2R,5R)-5-((2-(tert-butylamino)-5-methoxypyrimidin-4-yl)amino)-2-methylcyclohex-1-ol]
> 1000	> 1000	C[C@@H]1CC[C@@H](Nc2cc(NC(C)(C)F)ncc2C(N)=O)C[C@H]1O [Compound T057, 6-((2-fluoropropan-2-yl)amino)-4-(((1R, 3R,4R)-3-hydroxy-4-methylcyclohexyl)amino)nicotinamide]
> 1000	500 to 1000	C[C@@H]1CC[C@@H](Nc2cc(NC3CCCC3)ncc2C(N)=O)C[C@H]1O [Compound T056, 6-(cyclopentylamino)-4-(((1R,3R,4R)-3-hydroxy-4-methylcyclohexyl)amino) nicotinamide]
> 1000	> 1000	C[C@@H]1CC[C@@H](Nc2cc(NC3CCCC(O)C3)ncc2C(N)=O)C[C@H]1O (stereo partly drawn) [Compound T053, 4-(((1R,3R,4R)-3-hydroxy-4-methylcyclohexyl)amino)-6-((3-hydroxycyclohexyl)amino) nicotinamide]

The remaining lines, values behind:

SMILES	IC50 [1] [nM]	IC50 (JNK1 kinase) [nM]
CC(C)(C)Nc1ncc(C(N)=O)c(NC2CCCN(C(=O)CC#N)C2)n1 (stereo not drawn) [Compound T007, 2-(tert-butylamino)-4-((1-(2-cyanoacetyl)piperidin-3-yl)amino)pyrimidine-5-carboxamide]	> 1000	> 1000
CC(C)(C)Nc1ncc(C(N)=O)c(NC2CCCN(C(N)=O)C2)n1 (stereo not drawn) [Compound T021, 2-(tert-butylamino)-4-((1-carbamoylpiperidin-3-yl)amino) pyrimidine-5-carboxamide]	> 1000	100 to 500
C[C@@H]1CC[C@@H](Nc2nc(NC(C)(C)C)ncc2S(N)(=O)=O)C[C@H]1O [Compound T031, 2-(tert-butylamino)-4-(((1R,3R,4R)-3-hydroxy-4-methylcyclohexyl)amino) pyrimidine-5-sulfamide]	> 1000	> 1000
C[C@@H]1CC[C@@H](Nc2cc(NC3CCC(O)CC3)ncc2C(N)=O)C[C@H]1O (stereo partly drawn) [Compound T052, 4-(((1R,3R,4R)-3-hydroxy-4-methylcyclohexyl)amino)-6-((4-hydroxycyclohexyl)amino) nicotinamide]	> 1000	500 to 1000
C[C@@H]1CC[C@@H](Nc2nc(NC(C)(C)C)ncc2F)C[C@H]1O [Compound T012, (1R,2R,5R)-5-((2-(tert-butylamino)-5-fluoropyrimidin-4-yl)amino)-2-methylcyclohexan-1-ol]	> 1000	> 1000
C[C@@H]1CC[C@@H](Nc2nc(O[C@H]3CC[C@H](O)CC3)ncc2C(N)=O)C[C@H]1O [Compound T039, 4-(((1R,3R,4R)-3-hydroxy-4-methylcyclohexyl)amino)-2-(((1R, 4R)-4-hydroxycyclohexyl)oxy) pyrimidine-5-carboxamide]	> 1000	100 to 500
CC(C)(C)Nc1ncc(C(N)=O)c(N2CC(C(C)(C)O)C2)n1 [Compound T020, 2-(tert-butylamino)-4-(3-(2-hydroxypropan-2-yl)azetidin-1-yl) pyrimidine-5-carboxamide]	500 to 1000	100 to 500
C[C@@H]1CC[C@@H](Nc2nc(NC(C)(C)C)ncc2C(=O)N2CC2)C[C@H]1O [Compound T027, Aziridin-1-yl(2-(tert-butylamino)-4-(((1R, 3R,4R)-3-hydroxy-4-methylcyclohexyl)amino)pyrimidin-5-yl)methanone]	> 1000	500 to 1000
C[C@@H]1CC[C@@H](Nc2cc(NC3CCCC3O)ncc2C(N)=O)C[C@H]1O (stereo partly drawn) [Compound T055, 4-(((1R,3R,4R)-3-hydroxy-4-methylcyclohexyl)amino)-6-((2-hydroxycyclopentyl)amino)nicotinamide]	> 1000	> 1000
CC(C)(C)Nc1ncc(C(N)=O)c(NC2CCC(=O)NC2)n1 (stereo not drawn) [Compound T016, 2-(tert-butylamino)-4-((6-oxopiperidin-3-yl)amino)pyrimidine-5-carboxamide]	500 to 1000	< 100
COc1ccc(Nc2ncc(C(N)=O)c(N[C@@H]3CC[C@@H](C)[C@H](O)C3)n2)cc1 [Compound T010, 4-(((1R,3R,4R)-3-hydroxy-4-methylcyclohexyl)amino)-2-((4-methoxyphenyl)amino) pyrimidine-5-carboxamide]	< 100	< 100
CC(C)Nc1cc(N[C@@H]2CC[C@@H](C)[C@H](O)C2)c(C(N)=O)cn1 [Compound T047, 4-(((1R,3R,4R)-3-hydroxy-4-methylcyclohexyl)amino)-6-(isopropylamino)nicotinamide]	> 1000	500 to 1000
